The text below walks through data of patent publication US20220152100A1, “METHODS FOR CONTROLLED ACTIVATION OR ELIMINATION OF THERAPEUTIC CELLS” (Bellicum Pharmaceuticals, Inc., priority 2014, published 2022).

Assay [1] has as its target CD19-CAR-FRBl2 (1st generation CD19-CAR with two tandem FRBl domains, co-expressed with iCaspase-9 from iC9-CAR(19).FRBl2). In words: cell-based or functional assay.
The target of assay [2] is FRBL x4 scaffold, not myristoylated (plasmid pBP0725, pSH1-FRBI.FRBI′.LS.FRBI″.FRBI′′′). The assay is described as follows: cell-based or functional assay.
In assay [3] the target is Her2-CAR-FRBl2 (1st generation Her2-CAR with two tandem FRBl domains at its carboxy terminus). In words: cell-based or functional assay.
In assay [4] the target is FKBP12 x4 scaffold (plasmid pBP0722, pSH1-Fpk-Fpk′.LS.Fpk″.Fpk′′′.LS.HA) (Homo sapiens (Human)) (UniProt P62942). The assay is described as follows: cell-based or functional assay.
The target in assay [5] is wt FRB (K2095 T2098 W2101) (Homo sapiens, UniProt P42345+P62942). The conditions noted are these: cited from earlier work.
For a further assay, the system named is 293T cells. In words: SeAP reporter assay: FRBL-Caspase9 plus FKBPv12-Caspase9 heterodimerization. In kind it is cell-based, human. The protocol:
HEK 293T cells (5×10^5) were seeded on a 100-mm tissue culture dish in 10 mL DMEM4500, supplemented with glutamine, penicillin/streptomycin and 10% fetal calf serum. After 16-30 hours incubation, cells were transfected using Novagen's GeneJuice® protocol. Briefly, for each transfection, 0.5 mL OptiMEM was pipeted into a 1.5-mL microcentrifuge tube and 15 μL GeneJuice reagent added followed by 5 sec. vortexing. Samples were rested 5 minutes to settle the GeneJuice suspension. DNA (5 μg total) was added to each tube and mixed by pipetting up and down four times. Samples were allowed to rest for 5 minutes for GeneJuice-DNA complex formation and the suspension added dropwise to one dish of 293T cells. A typical transfection contains 1 μg SRα-SEAP (pBP0046) (3), 2 μg FRB-Caspase-9 (pBP0463) and 2 μg FKBPv12-Caspase-9 (pBP0044) (7).
24 hours following transfection (4.1), 293T cells were split to 96-well plates and incubated with dilutions of dimerizing drugs. Briefly, 100 μL media was added to each well of a 96-well flat-bottom plate. Drugs were diluted in tubes to a concentration 4× the top concentration in the gradient to be place on the plate. […] 100 μL from each drug-containing well was then transferred to the adjacent well and the cycle repeated 10 times to produce a serial two-fold step gradient. The last wells were untreated and serve as a control for basal reporter activity. […]
24 hours after drug stimulation, 96-well plates were wrapped to prevent evaporation and incubated at 65®C for 2 hours to inactivate endogenous and serum phosphatases while the heat-stable SeAP reporter remains (1, 4, 12). […] Phosphatase activity was measured by fluorescence with excitation at 355 nm and emission at 460 nm. […]
FIG. 37—Drug induced programmed cell death by homodimerization or heterodimerization of tagged caspase 9. […] Reporter activity is expressed as a percentage of the average of 8 control wells containing no drug. […]
FIG. 38—Rapalog-induced cell death switch. […] Reporter activity is expressed as a percentage of the average of 8 wells containing no drug. […]

The test system of assay [6] is 293 cells. The assay is described as follows: SEAP assay: iMC (tandem FKBP) plus FRBL2-Caspase-9. In kind it is cell-based, human. The conditions noted are these: tandem FKBPs (iMC) present. The protocol: FIGS. 16A and 16B are line graphs showing that tandem FKBP scaffold mediates FRBL2. Caspase activation in the presence of rapalogs. FIG. 16A. HEK-293 cells were transfected with 1 μg each of SRα-SEAP reporter plasmid, Δmyr.iMC.2A-anti-CD19.CAR.CD3 (pBP0608), and FRBL2. Caspase-9 (pBP0467). […] After ON incubation, cell supernatants were assayed for SEAP activity, as previously described. FIG. 16B. Similar to the experiment described in (FIG. 16A), except that cells were transfected with a membrane-localized (myristoylated) iMC.2A-CD19.CAR.CD3ζ (pBP0609), instead of non-myristoylated Amyr.iMC.2A-CD19.CAR.CD3ζ (pBP0608).
In a second test for rapalog-mediated scaffold-based activation of Caspase-9, 293 cells were transiently transfected with SRα-SEAP reporter plasmid, plus myristoylated or non-myristoylated inducible iMC co-expressed with 1st generation anti-CD19 CAR, plus FRBL2-fused Caspase-9 (plasmid pBP0467) (FIG. 16). […] Thus, rapamcyin and analogs can activate Caspase-9 via a molecular scaffold comprised of FRB or FKBP12 domains.

Assay [7] relates to 293 cells.
Procedure: FIG. 12B: Cultures of HEK-293 cells were transfected (via Genejuice, Novagen) with the constitutive SRα-SEAP reporter plasmid (pBP0046, 1 μg), a fusion of human FKBP12 with human Caspase-9 (pBP0044, 2 μg) and FRB-encoding expression constructs, containing four copies of FRBL (pBP0725, 2 μg) or control vectors encoding zero or one copy of FRBL. […] FIG. 12C: Reporter assays were performed as in (B), but FRB-scaffolds were expressed from constructs encoding iterated FRBL domains with an amino-terminal myristoylation-targeting sequence and two (pBP0465) or four copies (pBP0721) of the FRBL domain.
A subset of constructs also contained the myristoylation-targeting domain from v-Src for membrane localization of the FRB-scaffold (FIG. 12A). 293 cells were transfected with the SRα-SEAP reporter plasmid along with FKBP12-ΔCaspase-9 (iCaspase-9/CaspaCIDe), plus 1 of several FRB-based, non-myristoylated scaffold proteins containing 0, 1, or 4 tandem copies of FRBL.
Assay [8] relates to 293 cells. The assay is described as follows: SEAP assay: FRBl2-tagged CAR plus iCaspase-9, two-tiered apoptosis. Format: cell-based, human. The text has this: FIGS. 6A and 6B provide the results of an assay of two-tiered activation of apoptosis.
As a proof of principal, two tandem FRBl domains were fused to either a 1st generation Her2-CAR or to a 1st generation CD19-CAR co-expressing inducible Caspase-9. 293 cells were transiently transfected with a constitutive reporter plasmid, SRα-SEAP, along with normalized levels of expression plasmids encoding Her2-CAR-FRBl2, iCaspase-9, Her2-CAR-FRBl2+iCasp9, iC9-CAR(19).FRBl2 (coexpressing both CD19-CAR-FRBl2 and iCaspase9), or control vector. […] After overnight incubation with drugs, SEAP activity was determined. […] This dose-dependent decrease required the presence of both the FRB-tagged CAR and the FKBP-tagged Caspase-9. […] Moreover, on- or off-target-mediated CAR clustering should increase the sensitivity of killing primarily at the site of scFv engagement.

The subject of assay [9] is 293 cells. This is another data set of the same source.
Source text: To determine if the polarity of heterodimerization and Caspase-9 assembly could be reversed, one to four 1 to 4 tandem copies of FKBP12 were subcloned into expression vector, pSH1, as above. […] As above, 293 cells were transfected with the SRα-SEAP reporter plasmid along with FRBL-ΔCaspase-9, plus a non-myristoylated scaffold protein containing 1 or 4 tandem copies of FKBP12.
The next assay deals with CD3+ΔCD19+ cells. In words: CASPALLO phase 1 clinical trial: AP1903 in patients with GvHD after iCasp9+ T cells. The conditions noted are these: within 24 hours.
The test system of assay [10] is 293 cells. In words: SEAP assay: iMC.FRBL / iMC.FRBL2 plus Caspase-9. The conditions noted are these: Caspase-9 with iMC.FRBL or iMC.FRBL2 and anti-HER2 CAR. Format: cell-based, human. As for the experimental part:
HEK-293 cells were transfected with 1 μg of SRα-SEAP constitutive reporter plasmid along with either negative (Neg) control, eGFP (pBP0047), CaspaCIDe (iC9/pBP0044) alone, or CaspaCIDe along with iMC.FRBL (pBP0655)+anti-HER2.CAR.Fpk2 (pBP0488) or iMC.FRBL2 (pBP0498)+anti-HER2.CAR.Fpk2. Cells were then plated with half-log dilutions of rimiducid or rapamycin and assayed for SEAP as previously described. Diminution of SEAP activity correlates with cell elimination. Schematic represents one possible rapamycin-mediated complex of signaling domains, which lead to Caspase-9 clustering and apoptosis.
To determine if multimers of FRB would still act as a recruitment scaffold to enable rapalog-mediated Caspase-9 dimerization when attached to another signaling domain, 1 or 2 FRBL domains were fused to the potent chimeric stimulatory molecule, MyD88/CD40, to derive iMC.FRBL (pBP0655) and iMC.FRBL2 (pBP0498), respectively (FIG. 9B). As an initial test, 293 cells were transiently transfected with reporter plasmid SRα-SEAP, Caspase-9, a 1st generation anti-HER2 CAR (pBP0488) and (pBP0655 or pBP0498) (FIG. 15). Control transfections contained Caspase-9 (pBP0044) alone or eGFP expression vector (pBP0047). […] Thus, heterodimerizer-mediated activation of Caspase-9 is possible in cells containing multimers of FRBL fused to distinct proteins, such as MyD88/CD40.

Where [11] appears, read: FRBL-Caspase9 plus FKBPv12-Caspase9.

For orientation: EC50 means the concentration that produces a half-maximal response. As a reminder, the IC50 is the concentration that inhibits the measured activity by half. Read a high IC50 as lower potency.

Like-named read-outs stand apart in the source and are kept apart here.

FRBL x4 scaffold, not myristoylated (plasmid pBP0725, pSH1-FRBI.FRBI′.LS.FRBI″.FRBI′′′), sequence (chain, as listed by the source limits assumed): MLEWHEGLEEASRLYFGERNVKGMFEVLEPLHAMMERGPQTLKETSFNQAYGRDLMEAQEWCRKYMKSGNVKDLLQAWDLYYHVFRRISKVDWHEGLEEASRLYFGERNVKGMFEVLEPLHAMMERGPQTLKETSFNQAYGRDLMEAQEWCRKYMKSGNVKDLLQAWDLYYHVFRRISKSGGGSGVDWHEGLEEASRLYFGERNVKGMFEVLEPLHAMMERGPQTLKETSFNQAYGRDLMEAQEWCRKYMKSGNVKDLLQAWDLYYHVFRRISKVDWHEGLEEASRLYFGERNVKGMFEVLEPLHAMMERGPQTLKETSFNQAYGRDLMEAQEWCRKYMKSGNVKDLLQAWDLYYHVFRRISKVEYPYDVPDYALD

“FKBP12v36-ΔCaspase-9 fusion protein (iCaspase-9; plasmid pBP0044, pSH1-iCaspase9wt)”: the SRα-SEAP reporter activity after overnight rapamycin in transfected 293 cells in assay [1] and in assay [3] was 50 % decrease throughout. For the same molecule, the IC50 of rapamycin or C7-isopropoxy-rapamycin for diminution of constitutive SRα-SEAP reporter activity (cell death) in transfected 293 cells in assay [2] stood at 3 nM.
For the molecule “FRBL-ΔCaspase-9 fusion protein (plasmid pBP0463, pSH1-FRBL.dCaspase9.T2A)”, in assay [4], the IC50 of rapamycin or C7-isopropoxy-rapamycin for diminution of constitutive SRα-SEAP reporter activity (cell death) in transfected 293 cells was 3 nM.
“S-Butanesulfonamidorap [S-Butanesulfonamidorap (AP23050)]”: the EC50 in assay [5] is approximately 2.7 nM.
In the case of `COC1CC(CC(C)C2CC(=O)C(C)C=C(C)C(O)C(OC)C(=O)C(C)CC(C)C=CC=CC=C(C)C(OC(C)C)CC3CCC(C)C(O)(O3)C(=O)C(=O)N3CCCCC3C(=O)O2)CCC1O` (stereo not shown) [C7-isopropoxy-rapamycin, C7-isopropoxyrapamycin], the “cell death (loss of SeAP reporter)” value in the assay with 293T cells (setting [11]) is “dose-dependent high efficacy cell death switch”. Further, the “activation of FRBL2-Caspase-9” value in the assay on 293 cells [6] was “activated”.
Take `CO[C@H]1C[C@@H]2CC[C@@H](C)[C@@](O)(O2)C(=O)C(=O)N2CCCC[C@H]2C(=O)O[C@H]([C@H](C)C[C@@H]2CC[C@@H](O)[C@H](OC)C2)CC(=O)[C@H](C)/C=C(\C)[C@@H](O)[C@@H](OC)C(=O)[C@H](C)C[C@H](C)/C=C/C=C/C=C/1C` [rapamycin]: the IC50 in the assay with 293 cells [7] and with 293 cells [9] was approximately 3 nM in each case. Moreover, in the assay with 293 cells [8] (FRB-tagged CAR and FKBP-tagged Caspase-9, overnight), the “decrease of SEAP activity” value is approximately 50%.
On to `CC[C@H](C(=O)N1CCCC[C@H]1C(=O)O[C@H](CCc1ccc(OC)c(OC)c1)c1cccc(OCC(=O)NCCNC(=O)COc2cccc([C@@H](CCc3ccc(OC)c(OC)c3)OC(=O)[C@@H]3CCCCN3C(=O)[C@@H](CC)c3cc(OC)c(OC)c(OC)c3)c2)c1)c1cc(OC)c(OC)c(OC)c1` (relative stereo) [AP1903, 2-Piperidinecarboxylic acid, 1-[(2S)-1-oxo-2-(3,4,5-trimethoxyphenyl)butyl]-, 1,2-ethanedilbis[imino(2-oxo-2,1-ethanediyl)oxy-3,1-phenyleneR1R)-3-(3,4-dimethoxyphenyl)propylidene]] ester, [2S-[1(R*),2R*[S*[S*[1(R*),2R*]]]]]-(9CI)], for which the “cell death (loss of SeAP reporter)” value in the assay with 293T cells (FKBPv12-Caspase-9 with control vector or FRB without caspase fusion) is “effectively permitted homodimerization and induction of Caspase-9”; in the assay on 293T cells (setting [11]) it was “dose-dependent homodimerization of only FKBP12-Caspase9, leading to dimerization and activation of apoptosis”. Also, the “further reduction of CD3+ΔCD19+ cells” value in the assay with CD3+ΔCD19+ cells is “further log reduction”. Besides, the “SEAP reduction / cell killing” value with 293 cells [10] was “killed by Caspase-9 homodimerization”. Further, the “SEAP activity, of normal levels” value in the assay with 293 cells [8] (iCaspase-9, overnight) is reported as “about 20%”. For the same molecule, the “activation of FRBL2-Caspase-9” value in the assay with 293 cells [6] is reported as “not activated”.
